Experimental data as given in US10457710B2, “Antimicrobial peptides, their variants and uses” (priority 2015, dated 2019).

Tests used:
Experiment in all cases: MIC, clinical yeast strains
Assay type in all cases: cell-based
C. quillermondiae = tested on: C. quillermondiae; design: Minimum inhibitory concentration: unit: μg/ml; details: C. quillermondiae clinical yeast strain 1
Procedure: (§1) Minimum inhibition concetrations (MICs) were determined against Escherichia coli (ATCC 25922), Staphylococcus aureus (ATCC 25923), Klebsiella pneumoniae (ATCC 10031) and Pseudomonas aeruginosa (ATCC 27853). Also clinical strains of E. coli, K. pneumoniae, E. cloacae, P. aeruginosa, Serratia marcescens, Proteus mirabilis, S. pneumoniae, Acinetobacter baumannii, A. johnsonii and S. aureus were used for MICs assays. Additionally, clinical strains of yeast including Candida albicans, C. glabrata, C. parapsilosis and C. quillermondiae were used. The susceptibility of these microorganisms to Chain peptides were determined using micro broth dilution assay. Colonies of the respective microorganism from Muller Hinton (MH) agar plates incubated overnight were suspended in MH broth media and final concentration of microorganism was adjusted to 5.0×10^5 cfu/ml. An aliquot of 10 μl of each Chain peptide, or gentamicin, tetracycline as reference antibiotics were added in differing concentrations along with 90 μl of bacterial suspension to 96 well polypropylene plates and incubated at 37° C. for 20 to 24 hours. Concentrations of Chain peptides and reference antibiotics ranged from 0.125 to 128 μg/ml and the MICs were recorded as the lowest concentration with no visual growth of bacteria. Similarly, antifungal MICs were tested in Potato dextrose broth.
(§2) Clinical strains of yeasts including Candida albicans, C. glabrata, C. parapsilosis and C. quillermondiae were also tested with the 12 Chain peptides. The minimum inhibitory concentration (MICs) varied between these peptides and are presented in Tables 4a, 4b, 4c and 5a, 5b, 5c. Peptides Chain 105, 201 and 308 are broad spectrum antimicrobials with MICs between 0.5-32 μg/ml against all the bacteria and yeasts tested, except Serratia marcescens and Proteus mirabilis, against which the MICs were between 64-128 μg/ml. Peptide Chain 306 has narrow spectrum activity against E. coli at 1 μg/ml and for the rest of the bacterial strains at >32 μg/ml (FIG. 10c).

C. parapsilosis = tested on: C. parapsilosis
Procedure: as §1, §2

C. glabrata = tested on: C. glabrata
Procedure: as §1, §2

Candida albicans = tested on: Candida albicans
Procedure: as §1, §2

Measured: Minimum inhibitory concentration

C[C@@H]1[C@H](O)[C@@H](C)/C=C/C=C/C=C/C=C/C=C/C=C/C=C/[C@H](O[C@@H]2O[C@H](C)[C@@H](O)[C@H](N)[C@@H]2O)C[C@@H]2O[C@](O)(C[C@@H](O)C[C@@H](O)[C@H](O)CC[C@@H](O)C[C@@H](O)CC(=O)O[C@H]1C)C[C@H](O)[C@H]2C(=O)O [Amphotericin B]
2: C. quillermondiae | C. parapsilosis; C. parapsilosis clinical yeast strain 1 | C. parapsilosis; C. parapsilosis clinical yeast strain 2 | C. parapsilosis; C. parapsilosis clinical yeast strain 3 | C. parapsilosis; C. parapsilosis clinical yeast strain 4 | C. glabrata; C. glabrata clinical yeast strain 3 | Candida albicans; Candida albicans clinical yeast strain 1 | Candida albicans; Candida albicans clinical yeast strain 3 | Candida albicans; Candida albicans clinical yeast strain 4 | Candida albicans; Candida albicans clinical yeast strain 5
0.5: Candida albicans; Candida albicans clinical yeast strain 2
4: C. glabrata; C. glabrata clinical yeast strain 1 | C. glabrata; C. glabrata clinical yeast strain 2 | C. glabrata; C. glabrata clinical yeast strain 4
